Here are results for 45 molecules from the Deep4Chem optical property database.

This data set can be described thus: solvent given as SMILES.
Setting [1] is: in O=P(c1ccccc1)(c1ccccc1)c1ccccc1Oc1ccccc1P(=O)(c1ccccc1)c1ccccc1.

For the setting “in ClCCl”, `CC1(C)c2ccccc2-c2cc3c(cc21)c1ccccc1n3-c1cccnc1` had an emission maximum of 373 nm.

Consider `Cc1ccc(-c2ccc3ccc4cc(C(C)(C)C)cc5ccc2c3c45)cc1`, for which the emission maximum runs as follows: (in C1CCOC1) 384 nm; (in ClCCl) 384 nm.

Where the note is “in ClC(Cl)Cl”, `CN1CCCc2cc(C3=Cc4cccc[n+]4[B-](F)(F)O3)ccc21` gave an emission maximum of 508 nm.

On to `Cc1cccc(C2=Cc3c4ccccc4c4ccccc4[n+]3[B-](F)(F)O2)c1`, for which, under “in ClC(Cl)Cl”, the emission maximum was determined as 447 nm.

For the setting “in C1CCOC1”, `CCCCCCCCCCn1c(-c2cc(-c3nc4ccc(C)cc4n3CCCCCCCCCC)cc(-c3nc4ccc(C)cc4n3CCCCCCCCCC)c2)nc2ccc(C)cc21` yielded an emission maximum of 379.1 nm.

Regarding `CC(C)[Si]1(C(C)C)c2cc(C=O)ccc2-c2ccc(N(C)C)cc21`, the emission maximum is recorded as 414 nm (in C1CCCCC1); 528 nm (in CC#N); 565 nm (in CCO); 449 nm (in CCOCC); 541 nm (in CS(C)=O); 501 nm (in ClCCl). The molecule also gave an emission maximum (in c1ccccc1) of 450 nm.

For `C(=C\c1nc2ccccc2o1)/c1ccccc1`, the emission maximum by setting is: (in C1CCCCC1) 380 nm; (in CO) 380 nm.

Molecule `c1ccc(-c2nc(-c3ccccc3)nc(-c3cc(-n4c5ccccc5c5ncccc54)c(-n4c5ccccc5c5ncccc54)c(-n4c5ccccc5c5ncccc54)c3)n2)cc1` came in with an emission maximum (in Cc1ccccc1) of 435.76 nm.

Regarding `Cc1ccc2ccc3c(C)ccc4ccc1c2c43`, the emission maximum is, setting by setting: (in CCCCCC) 380 nm; (in CO) 381 nm; (in ClCCl) 382 nm.

`Cc1cc2nc3c(=O)[nH]c(=O)n(C)c3nc2cc1C`: the emission maximum (in CC#N) is reported as 437 nm.

Consider `CC(C)(C)c1ccc(-c2sc3c(-c4ccc(C(C)(C)C)cc4)c4n(c3c2-c2ccc(C(C)(C)C)cc2)[B-](F)(F)[N+]2=Cc3c(-c5ccc(C(C)(C)C)cc5)c5sc(-c6ccc(C(C)(C)C)cc6)c(-c6ccc(C(C)(C)C)cc6)c5n3[B-](F)(F)[N+]2=C4)cc1`, for which the emission maximum by setting is: (in CC#N) 627 nm; (in CCCCCC) 626 nm; (in CN(C)C=O) 636 nm; (in Cc1ccccc1) 632 nm; (in ClCCl) 631 nm.

As to `CCCCCCc1cc2c(s1)-c1sc(CCCCCC)cc1P(c1ccccc1)(c1ccccc1)=[O+][B-]2(c1c(C)cc(C)cc1C)c1c(C)cc(C)cc1C`, the emission maximum (in C1CCOC1) is given as 536 nm.

`C(=C\c1c2ccccc2cc2ccccc12)/c1cccc2ccccc12`: the emission maximum was found to be 501 nm (in CC1CCCCC1) and 503 nm (in CC#N).

Molecule `COc1cc2c3sc4ccccc4c3c3cncnc3c2c(OC)c1OC` came in with an emission maximum (in ClCCl) of 426 nm.

Regarding `c1ccc(C2CCN3COc4c5ccccc5c5c6c7c(c2c3c46)C(c2ccccc2)CCN7CO5)cc1` (stereo not drawn), the emission maximum by setting is: (in C1CCCCC1) 535 nm; (in C1CCOC1) 583 nm; (in C1COCCO1) 577 nm; (in CC#N) 610 nm; (in CC(C)=O) 603 nm; (in CCOC(C)=O) 584 nm. Also, the emission maximum reads like this: (in CCOCC) 562 nm; (in CN(C)C=O) 612 nm; (in CO) 598 nm; (in CS(C)=O) 618 nm; (in Cc1ccccc1) 565 nm; (in ClC(Cl)Cl) 596 nm. Under “in ClCCl”, this molecule registered an emission maximum of 600 nm.

For `Cc1cccc(C2=CC3=C(c4c(C)cc(C)cc4C)c4cc(-c5cccc(C)c5)c(-c5cccc(C)c5)n4[B-](F)(F)[N+]3=C2c2cccc(C)c2)c1`, the emission maximum turned out to be 625 nm (in C1CCCCC1); 626 nm (in C1CCOC1); 620 nm (in CC#N); 628 nm (in Cc1ccccc1); 627 nm (in ClCCl).

Where the note is “in ClCCl”, `CCCCCCOc1cc(/C=C/c2cc(OCCCCCC)c(/C=C/c3cc(OCCCCCC)c(C=C4C(=O)c5ccccc5C4=O)cc3OCCCCCC)cc2OCCCCCC)c(OCCCCCC)cc1C=C1C(=O)c2ccccc2C1=O` yielded an emission maximum of 662 nm.

In turn, `Cc1ccccc1C1CC(=O)Oc2c1c1nc3ccccc3nc1c1ccccc21` (stereo not drawn) returned an emission maximum (in ClC(Cl)Cl) of 434 nm.

Consider `CCCCc1ccc(-n2c3c4cc(F)ccc4nc(-c4ccc(OC)cc4)c3c3c2c2c(-c4ccc(OC)cc4)nc4ccc(F)cc4c2n3-c2ccc(CCCC)cc2)cc1`, for which, under “in ClC(Cl)Cl”, the emission maximum turned out to be 527 nm.

Molecule `N#CC(C#N)=Cc1ccc(-c2ccc(N(c3ccccc3)c3ccccc3)cc2)cc1` showed an emission maximum (in ClC(Cl)Cl) of 634 nm.

As for `Cc1cc(-c2ccc(C(C)(C)C)cc2)cc(C)[o+]1`, the emission maximum reads like this: (in CC#N) 430 nm; (in ClCCl) 417 nm.

Where the note is “in C1COCCO1”, `COC(=O)c1ccc(/C=C2\N=C(c3ccc(OC)c(OC)c3)NC2=O)cc1` had an emission maximum of 478 nm.

For the molecule `CN(C)c1ccc(/C=C/c2nc(/C=C/c3ccc(N(C)C)cc3)c3ccccc3n2)cc1`, the emission maximum (in C1CCCCC1) is 503 nm; the emission maximum (in C1CCOC1) amounted to 540 nm; the emission maximum (in CC#N) came out at 570 nm; the emission maximum (in CS(C)=O) was 580 nm; the emission maximum (in ClCCl) was determined as 545 nm.

`CC1=CC(C)=[N+]2C1=C(C1=C(C)C3=C(C)c4c(C)cc(C)n4[B-](F)(F)[N+]3=C1C)c1c(C)cc(C)n1[B-]2(F)F`: where the note is “in ClC(Cl)Cl”, the emission maximum was 527 nm.

Take `Cc1ccc(-c2ccc(/C=C/c3ccc(Br)n3C)cn2)nc1`: the emission maximum (in CC#N) is on record as 480 nm.

Consider `CC[n+]1c(-c2ccccc2)c2cc(NC(N)=O)ccc2c2ccc(N)cc21`, for which the emission maximum (in O) was determined as 601 nm.

`COc1cc(C2=CC3=C(c4c(C)cc(C)cc4C)c4cc(-c5cc(OC)c(OC)c(OC)c5)c(-c5cc(OC)c(OC)c(OC)c5)n4[B-](F)(F)[N+]3=C2c2cc(OC)c(OC)c(OC)c2)cc(OC)c1OC` showed an emission maximum (in C1CCCCC1) of 670 nm; an emission maximum (in C1CCOC1) of 662 nm; an emission maximum (in CC#N) of 628 nm; an emission maximum (in Cc1ccccc1) of 677 nm; an emission maximum (in ClCCl) of 651 nm.

As to `Cc1sc(Cl)cc1-c1nc(-c2ccccc2)[nH]c1-c1cc(Cl)sc1C`, the emission maximum (in CC#N) is listed as 381 nm.

Consider `COC(=O)C(NC(=O)OC(C)(C)C)c1ccc2oc(-c3ccc(O)cc3O)nc2c1` (stereo not drawn), for which the emission maximum is, setting by setting: (in CC1CCCCC1) 470 nm; (in CC#N) 380 nm; (in CO) 365 nm.

Regarding `Oc1ccccc1-c1nc2c(c3c1-c1ccccc1CC3)-c1ccccc1CC2`, the emission maximum (in ClCCl) is 413 nm.

As to `COc1ccc2c(-c3nc(-c4cccc(C)c4)no3)cc(=O)oc2c1`, the emission maximum came to 464 nm (in CCO) and 450 nm (in ClC(Cl)Cl).

Take `CC(=O)OC[C@@H]1O[C@H](n2cnc3c2N=CN2Cc4c[n+](C)c(C)nc4N=C32)[C@@H](O)[C@H]1O`: the emission maximum came to 415 nm (in CC#N), 416 nm (in CCO) and 409 nm (in O).

Molecule `C(=C\c1c2ccccc2cc2ccccc12)/c1c2ccccc2cc2ccccc12` showed an emission maximum (in C1CCOC1) of 650 nm.

Turning to `N#Cc1ccc(Oc2ccc3c4c(cccc24)C(=O)N(CCO)C3=O)cc1`, the emission maximum (in ClC(Cl)Cl) stood at 413 nm.

Regarding `c1ccc(N(c2ccccc2)c2ccc(-c3ncnc4ccccc34)cc2)cc1`, the emission maximum runs as follows: (in C1CCCCC1) 445 nm; (in C1CCOC1) 508 nm; (in CC#N) 559 nm; (in CS(C)=O) 563 nm; (in ClCCl) 528 nm.

Regarding `COc1ccc(-n2nc(C(=O)c3ccc(Cl)cc3)c(N3CCCC3)n2)cc1`, for the setting “in CC#N”, the emission maximum amounted to 421 nm.

For the molecule `CC1(C)c2ccccc2-n2c(-c3ccc(N4c5ccccc5Oc5ccccc54)cc3)nc3cccc1c32`, the emission maximum worked out at 502 nm (in Cc1ccccc1) and 485 nm under setting [1].

On to `CC(C)[Si](C#Cc1c2ccccc2c(C#C[Si](C(C)C)(C(C)C)C(C)C)c2nc3cc4c(cc3nc12)C1c2ccccc2C4c2ccccc21)(C(C)C)C(C)C`, for which the emission maximum runs as follows: (in CCCCCC) 568 nm; (in ClCCl) 593 nm.

The molecule `CC(C)(C)c1ccc(-c2nc(-c3ccc(-n4c5ccccc5c5c6oc7ccccc7c6ccc54)cc3)nc(-c3ccc(C(C)(C)C)cc3)n2)cc1` gave an emission maximum (in C1CCOC1) of 415.2 nm.

`Oc1ccc(C2=[N+]3C(=C(c4ccccc4)c4cccn4[B-]3(F)F)C=C2)cc1` showed an emission maximum (in ClC(Cl)Cl) of 564 nm.

Turning to `Cc1nc2cc3c4c(cccc4c2o1)C(=O)OC3=O`, the emission maximum (in CCO) came out at 412 nm.

As for `CCCCCCCCCCCCOc1cc2c3c(ccc4c5c(SCCCCCCCCCCCC)cc6c7c(ccc(c1c34)c75)C(=O)N(C1CCCCC1)C6=O)C(=O)N(C1CCCCC1)C2=O`, for the setting “in ClC(Cl)Cl”, the emission maximum is listed as 640 nm.

In the case of `N#Cc1ccc(N(c2ccc(C#N)cc2)c2ccc3c4cccc5c(N(c6ccc(C#N)cc6)c6ccc(C#N)cc6)ccc(c6cccc2c63)c54)cc1`, the emission maximum runs as follows: (in C1CCCCC1) 494 nm; (in C1CCOC1) 531 nm; (in CC#N) 535 nm; (in Cc1ccccc1) 513 nm; (in ClCCl) 522 nm.

On to `CC1(C)C(/C=C/C=C/C=C/C=C2/N(c3ccc(S(=O)(=O)[O-])cc3)c3ccc(S(=O)(=O)[O-])cc3C2(C)C)=[N+](c2ccc(S(=O)(=O)[O-])cc2)c2ccc(S(=O)(=O)[O-])cc21`, for which the emission maximum is 782 nm (in CO) and 779 nm (in O).

`CC(C)(C)c1ccc2c(c1)c1cc(C(C)(C)C)ccc1n2-c1cccc(-c2nc(-c3cccc(P(=O)(c4ccccc4)c4ccccc4)c3)nc(-c3cccc(P(=O)(c4ccccc4)c4ccccc4)c3)n2)c1` yielded an emission maximum (in C1CCOC1) of 511.91 nm; an emission maximum (in CC#N) of 581.72 nm; an emission maximum (in CC(C)=O) of 554.6 nm; an emission maximum (in CN(C)C=O) of 567.81 nm; an emission maximum (in Cc1ccccc1) of 480.78 nm; an emission maximum (in ClC(Cl)Cl) of 512.5 nm. Also, the emission maximum (in ClCCl) was 535.02 nm and the emission maximum under setting [1] is 484 nm.
